Where a chain is given by its changes, count along the chain named.
How the values were obtained:
mTAAR9 W7.40A = target: T1, mTAAR9 W7.40A (Mus musculus, UniProt Q5QD04, W298A); experiment: CRE-luciferase reporter assay, mTAAR9 mutant in Hana3A; assay type: cell-based; settings: read-out: EC50 (mean ± S.D., n = 3)
T1 construct: expressed in transfected cells; host or cells: Hana3A (HEK293-derived)
T1 sequence (Q5QD04 1-348 W298A): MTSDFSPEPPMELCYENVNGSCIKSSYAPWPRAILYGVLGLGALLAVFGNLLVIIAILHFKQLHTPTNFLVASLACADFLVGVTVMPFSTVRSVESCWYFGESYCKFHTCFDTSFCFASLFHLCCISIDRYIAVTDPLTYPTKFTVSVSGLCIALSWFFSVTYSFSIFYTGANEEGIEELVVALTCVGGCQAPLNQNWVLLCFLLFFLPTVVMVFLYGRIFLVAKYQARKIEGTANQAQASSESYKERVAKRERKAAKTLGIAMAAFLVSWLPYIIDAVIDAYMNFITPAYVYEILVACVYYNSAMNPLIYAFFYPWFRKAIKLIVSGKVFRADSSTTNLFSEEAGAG

sTAAR365 T7.42V = target: T2, sTAAR365 T7.42V (Petromyzon marinus, UniProt A0A678XMK4, T298V)
T2 sequence (A0A678XMK4 1-365 T298V): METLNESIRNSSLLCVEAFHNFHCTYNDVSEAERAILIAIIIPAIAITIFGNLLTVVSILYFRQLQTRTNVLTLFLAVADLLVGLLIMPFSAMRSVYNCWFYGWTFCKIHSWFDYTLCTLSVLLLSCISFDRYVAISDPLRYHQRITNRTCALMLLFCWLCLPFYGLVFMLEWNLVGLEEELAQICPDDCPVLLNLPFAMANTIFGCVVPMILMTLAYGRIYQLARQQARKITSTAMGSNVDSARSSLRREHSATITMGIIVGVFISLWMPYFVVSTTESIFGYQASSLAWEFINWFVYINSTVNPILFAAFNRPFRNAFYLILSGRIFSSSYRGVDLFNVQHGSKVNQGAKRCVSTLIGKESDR

mTAAR9 W7.40F = target: T3, mTAAR9 W7.40F (Mus musculus, UniProt Q5QD04, W298F); experiment: CRE-luciferase reporter assay, mTAAR9 mutant in Hana3A; assay type: cell-based; settings: read-out: EC50 (mean ± S.D., n = 3)
T3 construct: expressed in transfected cells; host or cells: Hana3A (HEK293-derived)
T3 sequence (Q5QD04 1-348 W298F): T1 sequence (Q5QD04 1-348 W298A) with A298F

sTAAR365 Y7.43S = sTAAR365 Y7.43S (Petromyzon marinus, UniProt A0A678XMK4, Y299S); experiment: cell-based
WT mTAAR9 = target: T4, WT mTAAR9 (Mus musculus, UniProt Q5QD04); experiment: CRE-luciferase reporter assay, wild-type mTAAR9 in Hana3A; assay type: cell-based; settings: mouse TAAR9, ligand 1 mM, Fig. 1B
T4 construct: Rho-tag (first 20 amino acids of bovine rhodopsin) (N); expressed in transfected cells; host or cells: Hana3A (HEK293-derived)
T4 sequence (Q5QD04 1-348): T1 sequence (Q5QD04 1-348 W298A) with A298W
Procedure: Mammalian TAAR9 plasmids were transfected into Hana3A cells along with a cAMP-dependent luciferase reporter plasmid (CRE-Luc). Transfected cells were incubated with tested ligands, and luciferase activity was quantified with a […] substrate as a reporter for Golf-mediated TAAR activation. Luciferase activity was indicated by the luminescence value and normalized as a fold-increase over the response to the vehicle stimuli (mean ± S.D., n = 3). […] B, Hana3A cells expressing mouse, rat, human, cat, hamster, and rabbit TAAR9 were incubated with either vehicle or tested ligands (1 mM) and assayed for reporter activity. C, concentration-dependent luciferase activity in Hana3A cells expressing mouse, rat, and cat TAAR9 receptors stimulated with cadaverine, spermidine, and spermine.
The firefly luciferase and renilla luciferase activity was measured with a BioTek microplate reader following manufacturer’s instructions.

sTAAR348 = settings: expressed in HEK293T cells; cited from earlier work

Chain of sTAAR365 Y7.43S (A0A678XMK4 whole entry Y299S): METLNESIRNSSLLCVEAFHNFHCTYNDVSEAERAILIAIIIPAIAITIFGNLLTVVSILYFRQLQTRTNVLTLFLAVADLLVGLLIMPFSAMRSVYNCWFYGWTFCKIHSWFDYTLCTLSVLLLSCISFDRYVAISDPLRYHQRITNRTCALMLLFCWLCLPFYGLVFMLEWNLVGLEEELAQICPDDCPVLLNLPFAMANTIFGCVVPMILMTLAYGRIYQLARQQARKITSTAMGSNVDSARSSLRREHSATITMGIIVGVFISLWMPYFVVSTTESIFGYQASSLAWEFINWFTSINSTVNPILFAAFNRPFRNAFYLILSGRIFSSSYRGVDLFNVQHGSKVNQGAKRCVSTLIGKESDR

For `NCCCCCN` [cadaverine], the EC50 (mTAAR9 W7.40A) was > 1 mM, the “increase of EC50 vs wild-type sTAAR365” value (sTAAR365 T7.42V) was “over three” and the EC50 (mTAAR9 W7.40F) was 83 ± 35 µM. It also gave an EC50 (sTAAR365 Y7.43S) of 124 ± 9 µM.
For `NCCCCN` [putrescine], the “reporter activity (activation of TAAR9)” value (WT mTAAR9) was “not activated”.
In the case of `NCCCNCCCCNCCCN` [spermine], the “response of sTAAR348” value (sTAAR348) is listed as “responds”.

From article PMC8546428, “Convergent olfactory trace amine-associated receptors detect biogenic polyamines with distinct motifs via a conserved binding site” (The Journal of Biological Chemistry, 2021)
